From patent US9828375B2, “4-position substituted pyrazolopyrimidine derivative, and use thereof in drug preparation” (Guangxi Wuzhou Pharmaceuticals (Group) Co., Ltd., priority 2012, dated 2017) come the findings set out here.

The target of one test is FGFR2 (Homo sapiens, UniProt P21802). The test can be described thus: Kinase inhibition activity test, isotope labeling: FGFR2. It is filed as biochemical. To be noted: for IC50: ATP 90 μM, read-out: FGFR2 IC50 value (inhibitory activity value); for Activity inhibition rate FGFR2 (h) / inhibition at 10 µM: test compound at a concentration of 10 μM; for inhibition at 10 µM: read-out: Activity inhibition rate FGFR2 (h). The method, then:
The purpose of this experiment was to test the inhibitory activity of the compound of the invention for in vitro kinase with the isotope labeling method (the γ phosphate group on ATP was labeled). In this experiment, the in vitro activity inhibition of such kinases as FLT3, VEGFR2, FLT1, FLT4, RET, c-RAF, B-RAF, c-KIT, PDGFα, PDGFβ, FGFR2, FGFR1, EphA2, EphB2, SRC, ABL, ALK and Met was tested respectively. Staurosporine was reference molecule (or referred to as positive control). The kinase inhibition activity of the test compound was expressed by half-inhibitory concentration (IC50) or the kinase activity inhibition rate of the test compound at a concentration of 10 μM. The IC50 value could be obtained by calculating the kinase activity inhibition rate of the test compound at different concentrations.
20 mM 3-(N-morpholinyl)propanesulfonic acid (MOPS); 1 mM ethylenediaminetetraacetic acid (EDTA), 0.01% Brij 35 (Brij-35), 5% glycerol, 0.1% mercaptoethanol, 1 mg/mL bovine serum albumin (BSA), 10 mM manganous dichloride solution (MnCl2), 0.1 mg/mL glutamic acid/tyrosine (4:1) polypeptide (poly(Glu, Tyr)4:1), 50 μM EAIYAAPFAKKK (substrate of FLT3), 0.33 mg/mL myelin basic protein (substrate of VEGFR2), 250 μM KKKSPGEYVNIEFG (substrate of FLT1(h)), 500 μM GGEEEEYFELVKKKK (substrate of FLT4(h)), 250 μM KKKSPGEYVNIEFG (substrate of RET), 0.66 mg/mL myelin basic protein (substrate of C-RAF), 250 μM GGMEDIYFEFMGGKKK (substrate of c-Kit), 250 μM GGMEDIYFEFMGGKKK (substrate of PDGFα), 250 μM KKKSPGEYVNIEFG (substrate of FGFR1), […] GGEEEEYFELVKKKK (substrate of SRC), 50 μM EAIYAAPFAKKK (substrate of ABL), 250 μM KKKSPGEYVNIEFG (substrate of ALK), 250 μM KKKSPGEYVNIEFG (substrate of Met(h)), 10 mM magnesium acetate and γ-^33 P-ATP solution, stop buffer (3% phosphate buffer), washing buffer (75 mM phosphate solution), methanol, Filtermat A membrane, FLT3, VEGFR2, FLT3, VEGFR2, FLT1, FLT4, RET, c-RAF, B-RAF, c-KIT, PDGFRα, PDGFRβ, FGFR2, FGFR1, EphA2, EphB2, SRC, ABL, ALK, Met and other kinases, and the test compounds.
Buffers (8 mM MOPS with pH value of 7.0, 0.2 mM EDTA and 10 mM MnCl2), (5-10 mU) kinases to be tested (FLT3, VEGFR2, FLT1, FLT4, RET, c-RAF, B-RAF, c-KIT, PDGFRα, PDGFRβ, FGFR2, FGFR1, EphA2, EphB2, SRC, ABL, ALK and Met), substrates of kinases to be tested (refer to experimental materials), 10 mM magnesium acetate and γ-^33 P-ATP solution, and test compounds at different concentrations were added to a reaction tube orderly. […] Reaction was terminated with 5 μL 3% phosphate buffer finally, and 10 μL reaction solution was titrated to the Filtermat A membrane; solution was washed for 3 times with 75 mM phosphate solution with each time lasting 5 minutes, and then washed once with methanol. Finally, the Filtermat A membrane was dried, and scintillation counting was performed on the membrane, with scintillation count reflecting the phosphorylation degree of the substrates, so that the activity inhibition of kinase could be characterized.

For test [1], the system named is human leukemia cell line MV4-11. Kind of test: In vitro tumor cell proliferation inhibition (MTT): MV4-11. It is filed as cell-based. The source says: (§1) The purpose of the experiment was to test the inhibition activity of the compounds of the invention for in vitro human tumor cell proliferation by the methyl thiazolyl tetrazolium (MTT) colorimetry.
(§2) Main reagents: RPMI-1640, fetal bovine serum, pancreatin, etc. were purchased from Gibco BRL Company (Invitrogen Corporation, USA) and IMDM medium that was purchased from American Type Culture Collection (ATCC). Methyl thiazolyl tetrazolium (MTT) and dimethyl sulfoxide (DMSO) were products from Sigma Company (USA). Pyrazolopyrimidine derivatives were composed by the inventor. During in vitro experiment, 100% DMSO was prepared into 10 mM storage solution, the solution was stored in a refrigerator at −20° C. for future use, and was diluted to the required concentration with complete culture solution before use.
(§3) Cell line and culture: Human leukemia cell line MV4-11, Jurkat, K562, human thyrophyma cell line TT, human gastric carcinoma cell line MKN-45, human malignant melanoma cell lines A375 and A875, human pancreatic carcinoma cell line panc-1, human cervical carcinoma cell line HELA, human colorectal carcinoma cell line HCT116, etc. were purchased from American type culture collection and were preserved by this laboratory. All leukemia cell lines (except MV4-11), gastric carcinoma cell lines and thyrophyma cell lines were cultured in RPMI-1640 complete medium containing 10% fetal bovine serum, 100 U/mL penicillin and 100 μg/mL streptomycin at 37° C. in 5% CO2. The remaining cell lines were cultured in DMEM complete medium containing 10% fetal bovine serum (containing 20% MV4-11 cell), 100 U/mL penicillin and 100 µg/mL streptomycin at 37° C. in 5% CO2.
(§4) Cell suspension with cell concentration of 1-2×10^4/mL was adjusted with the complete cell medium and inoculated in a 96-well plate, with each well filled with 200 μl cell suspension that was cultured overnight. On the next day, supernatant was sucked and abandoned (supernatant was sucked upon centrifugation of suspension cells), and then cells were processed with test compounds at gradient concentrations respectively. Meanwhile, a negative control group free from drug and a solvent control group with equal volume were set, and the DMSO concentration was 0.1%. Each dose group was provided with three wells and cultured at 37° C. in 5% CO2. After 72 hours, 20 μl 5 mg/mL MTT reagent was added to each well, and cultured for another 2 to 4 hours, the supernatant was abandoned; 150 μL DMSO was added to each well again, vibrated and mixed evenly for 15 minutes; the absorbance (A) values (proportional to living cell amount) were determined with a microplate reader (λ=570 nm) and averaged. […] Experiment was repeated for 3 times at least. Experimental data were expressed with means, data statistics were tested by t, and P<0.05 means that difference has a statistical significance. The cell proliferation inhibition effects of all compounds as follows are expressed by IC50 or inhibition rate.

In test [2] the test system is human gastric carcinoma cell line MKN-45. The test can be described thus: In vitro tumor cell proliferation inhibition (MTT): MKN-45. It is filed as cell-based.
Text: as §1, §2, §3, §4

Test [3] deals with human pancreatic carcinoma cell line panc-1. Kind of test: In vitro tumor cell proliferation inhibition (MTT): panc-1. Type of test: cell-based.
Text: as §1, §2, §3, §4

Test [4] relates to human leukemia cell line Jurkat. Kind of test: In vitro tumor cell proliferation inhibition (MTT): Jurkat. The conditions noted are these: 72 hours. It is filed as cell-based.
Text: as §1, §2, §3, §4

Test [5] deals with human colorectal carcinoma cell line HCT116. The test can be described thus: In vitro tumor cell proliferation inhibition (MTT): HCT116. Type of test: cell-based.
Text: as §1, §2, §3, §4

In test [6] the test system is human cervical carcinoma cell line HELA. Kind of test: In vitro tumor cell proliferation inhibition (MTT): HELA. To be noted: 72 hours. It is filed as cell-based.
Text: as §1, §2, §3, §4

[7] abbreviates: 72 hours, read-out: Proliferation inhibition activity (IC50) HCT 116.
[8] abbreviates: Homo sapiens, HCT-116, 72 hours.

Where two headings read alike, the source gives them in different places.

Sequence of FGFR2 (P21802 22-821): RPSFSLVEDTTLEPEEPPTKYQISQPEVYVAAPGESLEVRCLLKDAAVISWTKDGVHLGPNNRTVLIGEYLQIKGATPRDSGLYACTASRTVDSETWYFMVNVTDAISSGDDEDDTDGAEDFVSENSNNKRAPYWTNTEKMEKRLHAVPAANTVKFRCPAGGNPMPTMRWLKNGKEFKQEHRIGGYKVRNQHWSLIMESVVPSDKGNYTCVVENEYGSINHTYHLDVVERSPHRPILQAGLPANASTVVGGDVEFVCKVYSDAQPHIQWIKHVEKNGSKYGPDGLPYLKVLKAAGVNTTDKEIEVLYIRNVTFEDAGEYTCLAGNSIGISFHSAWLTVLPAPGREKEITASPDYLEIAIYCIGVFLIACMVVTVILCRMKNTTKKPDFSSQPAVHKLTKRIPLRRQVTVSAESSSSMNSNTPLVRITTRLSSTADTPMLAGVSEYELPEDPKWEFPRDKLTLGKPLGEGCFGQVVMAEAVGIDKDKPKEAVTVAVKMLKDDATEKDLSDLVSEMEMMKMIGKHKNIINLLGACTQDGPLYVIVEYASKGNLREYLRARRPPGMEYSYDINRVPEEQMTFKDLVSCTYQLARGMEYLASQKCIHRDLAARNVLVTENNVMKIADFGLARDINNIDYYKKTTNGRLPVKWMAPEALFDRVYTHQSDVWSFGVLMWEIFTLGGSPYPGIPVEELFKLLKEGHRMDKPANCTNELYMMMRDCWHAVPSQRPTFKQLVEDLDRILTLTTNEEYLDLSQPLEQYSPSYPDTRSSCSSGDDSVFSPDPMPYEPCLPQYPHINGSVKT

For the molecule `O=C(Nc1ccc(Oc2ncnc3[nH]ncc23)cc1)Nc1ccc(Cl)c(C(F)(F)F)c1` [4a-2], the IC50 at FGFR2 was 1.8 µM; in test [1] (72 hours) it was 0.003 µM; in test [2] (72 hours), 8.23 µM; in test [3] (72 hours) it was < 50 µM; in test [4], 8.72 µM; in test [5] (setting [7]), < 50 µM. Also, the IC50 in test [6] is < 50 µM. In addition, on FGFR2, the “Activity inhibition rate FGFR2 (h)” value was found to be 80%.

The term inhibition denotes the percentage by which the read-out fell short of the control. Regarding `O=C(Nc1ccc(Oc2ncnc3[nH]ncc23)cc1)Nc1cccc(C(F)(F)F)c1` [4a-6], the IC50 at FGFR2 was < 10 µM; in test [1] (Homo sapiens, MV4-11, 72 h), 0.004 µM; in test [2] (Homo sapiens, MKN-45, 72 hours), 9.71 µM; in test [3] (Homo sapiens, PANC-1, 72 hours), < 50 µM; in test [4] (Homo sapiens, Jurkat), 4.28 µM; in test [5] (setting [8]) it was < 50 µM. The IC50 in test [6] (Homo sapiens, HeLa) is < 50 µM. Also, the inhibition at 10 µM on FGFR2 came out at 56%.

On to `CC(C)c1cccc(NC(=O)Nc2ccc(Oc3ncnc4[nH]ncc34)c(F)c2)c1` [4a-7, 1-(4-((1H-pyrazolopyrimidine-4-yl)oxy)-3-fluorophenyl)-3-(3-isopropylphenyl)urea], for which the “Activity inhibition rate FGFR2 (h)” value on FGFR2 stood at 51%. Besides, the IC50 in test [1] (72 hours) was 0.011 µM; in test [2] (72 hours), < 50 µM; in test [3] (72 hours), < 50 µM; in test [4], < 50 µM; in test [5] (setting [7]) it was < 50 µM; in test [6], < 50 µM.

For `O=C(Nc1ccc(C(F)(F)F)cc1)Nc1ccc(Oc2ncnc3[nH]ncc23)c(F)c1` [4a-9, 1-(4-((1H-pyrazolopyrimidine-4-yl)oxy)-3-fluorophenyl)-3-(4-(trifluoromethyl)phenyl)urea], at FGFR2, the “Activity inhibition rate FGFR2 (h)” value stood at 18%. Further, the IC50 in test [1] (72 hours) was 0.043 µM; in test [2] (72 hours), 7.63 µM; in test [3] (72 hours), 2.31 µM; in test [4], < 50 µM; in test [5] (setting [7]), 4.56 µM; in test [6] it was 4.98 µM.

Turning to `O=C(Nc1ccc(Oc2ncnc3[nH]ncc23)c(F)c1)Nc1ccc(Cl)c(C(F)(F)F)c1` [4a-10, 1-(4-((1H-pyrazolopyrimidine-4-yl)oxy)-3-fluorophenyl)-3-(4-chloro-3-(trifluoromethyl)phenyl)urea], on FGFR2, the “Activity inhibition rate FGFR2 (h)” value was 53%. Further, the IC50 in test [1] (72 hours) was 0.009 µM; in test [2] (72 hours), 5.28 µM; in test [3] (72 hours), < 50 µM; in test [4] it was 9.93 µM; in test [5] (setting [7]), < 50 µM; in test [6] it was < 50 µM.

Turning to `O=C(Nc1ccc(Oc2ncnc3[nH]ncc23)cc1)Nc1cc(C(F)(F)F)cc(C(F)(F)F)c1` [4a-12, 1-(4-((1H-pyrazolopyrimidine-4-yl)oxy)phenyl)-3-(3,5-bis(trifluoromethyl)phenyl)urea], the “Activity inhibition rate FGFR2 (h)” value on FGFR2 came out at 71%. The IC50 was 0.017 µM in test [1] (72 hours); 8.29 µM in test [2] (72 hours); < 50 µM in test [3] (72 hours); < 50 µM in test [4]; < 50 µM in test [5] (setting [7]); < 50 µM in test [6].

As for `O=C(Nc1ccc(Oc2ncnc3[nH]ncc23)cc1)Nc1ccc(C(F)(F)F)cc1Cl` [4a-13], the “Activity inhibition rate FGFR2 (h)” value on FGFR2 came to 13%. For the same molecule, the IC50 in test [1] (72 hours) was 0.018 µM; in test [2] (72 hours) it was 6.68 µM; in test [3] (72 hours) it was < 50 µM; in test [4], < 50 µM; in test [5] (setting [7]) it was < 50 µM; in test [6], < 50 µM.

As for `O=C(Nc1ccccc1)Nc1ccc(Oc2ncnc3[nH]ncc23)cc1` [4a-15, 1-(4-((1H-pyrazolopyrimidine-4-yl)oxy)phenyl)-3-phenylurea], the “Activity inhibition rate FGFR2 (h)” value on FGFR2 was 100%. Also, the IC50 is 0.32 µM in test [1] (72 hours); < 50 µM in test [2] (72 hours); < 50 µM in test [3] (72 hours); < 50 µM in test [4]; < 50 µM in test [5] (setting [7]); < 50 µM in test [6].

As to `C[C@H](NC(=O)Nc1ccc(Oc2ncnc3[nH]ncc23)cc1)c1ccccc1` [4a-18, (S)-1-(4-((1H-pyrazolopyrimidine-4-yl)oxy)phenyl)-3-(1-phenethyl)urea], the “Activity inhibition rate FGFR2 (h)” value on FGFR2 stood at 22%. The IC50 in test [1] (72 hours) is 0.112 µM; in test [2] (72 hours), < 50 µM; in test [3] (72 hours), < 50 µM; in test [4], 3 to 10 µM; in test [5] (setting [7]), < 50 µM; in test [6] it was < 50 µM.

With `CC(C)(C)c1cc(NC(=O)Nc2ccc(Oc3ncnc4[nH]ncc34)cc2)on1` [4a-25], the IC50 is < 10 µM on FGFR2; 0.0003 µM in test [1] (72 hours); 1.3 µM in test [2] (72 hours); 3 to 10 µM in test [3] (72 hours); < 50 µM in test [4]; 3 to 10 µM in test [5] (setting [7]). The same molecule yielded an IC50 in test [6] of 3 to 10 µM. The “Activity inhibition rate FGFR2 (h)” value at FGFR2 is on record as >50%.

With `CC(C)(C)c1cc(NC(=O)Nc2ccc(Oc3ncnc4[nH]ncc34)cc2)no1` [4a-26], on FGFR2, the inhibition at 10 µM is > 50%. The IC50 is 0.0003 µM in test [1] (Homo sapiens, MV4-11, 72 h); 1.12 µM in test [2] (Homo sapiens, MKN-45, 72 hours); 3 to 10 µM in test [3] (Homo sapiens, PANC-1, 72 hours); 3 to 10 µM in test [4] (Homo sapiens, Jurkat); 3 to 10 µM in test [5] (setting [8]); 3 to 10 µM in test [6] (Homo sapiens, HeLa).
